# Laboratory results reported in patent publication US20040105849A1, “Treatment for SMA disease” (priority 2002, published 2004).
# How the values were obtained:
# [1] = tested on: Infantile Seborrhoeic Dermatitis (cradle cap); assay: Treatment of Infantile Seborrhoeic Dermatitis (cradle cap) in Patient A; type: in vivo, human; conditions: about 4,000 mcg at intervals of three days per week
# Source text: Early Symptoms and Patient Diagnosis. The patient (“Patient A”), a person. They were normal at birth with no signs of muscular weakness. Within three months of their birth, they developed a skin condition. […] Infantile Seborrhoeic Dermatitis, also known as cradle cap, is a condition that occurs in infants and is caused by the drying of excess oils excreted from the infant's body. It is characterized by a yellowish-whitish crust on the infant's head. Following medical consultation, various topical creams and ointments were employed without success. The B vitamin biotin was then given at a dosage of about 4,000 mcg at intervals of three days per week. Current research attributes cradle cap to a deficiency of this vitamin. […] Gut bacteria located in the large intestine are responsible for the production this B vitamin and a deficiency of this nutrient under normal conditions is rare.
# [2] = tested on: Patient A, Spinal Muscular Atrophy (SMA) Type I; assay: Tolerability / adverse effects of the supplements in Patient A; type: in vivo, human
# Source text: It is understood that the amounts of the various ingredients of the method of the invention can be, as may be necessary, conveniently be adjusted up or down for body weigh and other variants of the disease. The mode of delivery may vary. […] Ingredients could also be injected into the gastric tube in solid, gel or semi-solid form. Other children may swallow ingredients in solid or liquid form (with pharmaceutically acceptable carriers, e.g., water).
smiles,measurement,setting,value
O=C(O)CCCC[C@@H]1SC[C@@H]2NC(=O)N[C@@H]21 [biotin],course of cradle cap,[1],resolved itself almost immediately
C[C@@H]1O[C@@H](OC[C@H]2O[C@@H](Oc3c(-c4ccc(O)c(O)c4)oc4cc(O)cc(O)c4c3=O)[C@H](O)[C@@H](O)[C@@H]2O)[C@H](O)[C@H](O)[C@H]1O [Rutin],adverse effects at higher dosages,[2]; dosages higher than approximately 3 mg every three days,"nausea, decrease gastrointestinal motility and drowsiness"
same,adverse effect of rutin along with pectin,[2]; rutin added to pectin,caused their lips to blister and peel
O=c1c(O)c(-c2ccc(O)c(O)c2)oc2cc(O)cc(O)c12 [quercetin],adverse effect of too much quercetin,"[2]; above 300 mg capsule, ½ capsule three days per week",depress Patient A's respiration
